# Test results: US20130171273A1, “METHOD OF TREATING IMPAIRED WOUND HEALING IN DIABETICS” (KUWAIT UNIVERSITY, priority 2011, published 2013)
# “And” between values parts separate entries of the source, which are not always exact repeats. Equal values may be shown once. Read-outs that look alike come from different tables or passages of the source.
# Key:
# NADPH oxidase = assay: NADPH-dependent superoxide generation in membrane fractions (lucigenin chemiluminescence / SOD-inhibitable cytochrome c reduction); type: biochemical, rat; settings: membrane fractions of diabetic fibroblasts
# Description: To study NADPH oxidase activity, cell pellets collected by trypsinization and suspended in 20 mM MOPS-KOH buffer, pH 7.4 containing 250 mM, 0.1 mM EDTA and a cocktail of protease inhibitors. The cells were disrupted by sonication on ice and the cell lysates were fractionated by centrifugation twice at 29,000×g for 15 min, discarding the supernatant each time. The pellet was resuspended in sucrose buffer and assayed for NADPH oxidase activity using lucigenin chemiluminescence or cytochrome c reduction-based assay. Briefly, membrane fractions (˜10 μg protein) were diluted in sucrose buffer/protease inhibitors and then lucigenin was added ((5 μM) in the presence or absence of 100 μM NADPH. The chemiluminescence was measured in 30 sec intervals over 5 min. The specificity of superoxide measured was confirmed by adding peg-SOD (10 units/ml). For the assessment of SOD-inhibitable cytochrome reduction, ˜100 μg membrane protein was added to a buffer containing cytochrome c (50 μM), NADPH (100 μM) and in the presence or absence of peg-SOD. After one hr, activity was measured as the SOD-inhibitable increase in absorbance at 550 nm (EmM=21). Assay conditions were established confirming the linearity of superoxide production with time and protein concentrations.
# Following the procedures above, it was determined that superoxide generation over a 30-minute period was 55% higher in DFs relative to corresponding control values (FIG. 1A). This radical is a by-product of mitochondrial respiration and enzymatic oxidases. Accordingly, it was examined whether the observed elevation in superoxide stemmed from enhanced activity of the non-phagocytic NAD(P)H oxidase.
# [1] = tested on: control fibroblasts (CFs); settings: rat, 16 h
# Description: (§1) To quantify relative cell death in control and diabetic fibroblasts, cells were seeded at 1×10^4 cells/well on a 96-well plate. After a 24 h incubation period, the cells were exposed to various concentrations of HP in serum-free medium at 37° C. for 2 h [lactate dehydrogenase (LDH), a marker for necrotic cell death] or for 16 h (cell viability and apoptosis assay). Quantification of cell viability and caspase-3-like activity was achieved using a Cell Counting Kit-8 (Dojindo, Kumamoto, Japan) and an Apo-ONE homogenous caspase-3/7 assay (Promega), respectively. The values obtained were normalized to the vehicle-treated cells. To measure the rate of necrotic cell death, a LDH release assay was performed using a CytoTox-ONE Homogeneous Membrane Integrity Assay kit (Promega). In some experiments, cells were pre-incubated for 1 h with 2 μg of the ATPase inhibitor oligomycin before exposure to HP.
# [2] = tested on: diabetic fibroblasts (DFs); settings: for loss in cell viability: rat, 16 h
# Description: as §1
# [3] = tested on: control fibroblasts (CFs); assay: Caspase-3-like activity (Apo-ONE caspase-3/7 assay), control fibroblasts; type: cell-based, rat
# Description: as §1
# CFs and DFs = assay: Lipid peroxidation (DPPP fluorescence) in control and diabetic fibroblasts; type: cell-based, rat; settings: stressed CFs and DFs; markedly higher in diabetic than in control cells, FIG. 1E
# Description: To measure lipid peroxidation and plasma membrane redox system (PMRS) enzymes, a total of 10-20 μg of purified plasma membrane protein in a butler containing 50 mM Tris at pH 7.6, 0.2 mM NADH, and 0.1% Triton X-100 was analyzed in the spectrophotometric determination (340 nm) of the activities of NADH CoQ and NADH-ascorbate free radical reductase [also known cytochrome b5 reductase, following the respective additions of coenzyme Q (0.2 mM) and fresh ascorbate (0.4 mM). NQO1 activity was measured at 550 nm in solution buffer containing 5 mM. Tris-HCl at pH 7.6, 0.2 mM NADPH, 0.1% Triton X-100, 10 μM menadione and 75 μM cytochrome c with or without dicoumarol. Calculation of the activity of NQO1 was based on the difference between the uninhibited and the dicoumarol-inhibited samples. Cells were assessed for lipid peroxidation using the diphenyl-1-pyrenylphosphine (DPPP, Invitrogen) fluorescence-based assay. […] The plate was read for DPPP fluorescence (excitation at 340 nm and emission at 405 nm) in a 96-well fluorescence plate reader. […]
# To monitor whether the diabetes-induced elevation in intracellular levels of ROS may reflect an increase in lipid peroxidation, a marker of accumulative oxidative stress (OS), the lipid peroxide formation of CFs and DFs at baseline and under stressed conditions was measured using the dye DPPP, which intercalates and reacts with lipid hydroperoxides.
# Nrf2 [4] = assay: Nuclear accumulation of Nrf2 in diabetic fibroblasts (subcellular fractionation, Western blot); type: cell-based, rat; settings: for nuclear accumulation of Nrf2: DFs, OS-inducing agent, compared with CFs, FIG. 3D
# Description: To quantify responses to oxidative stress activators, fibroblasts of control and of type 2 diabetes were treated with vehicle or the OS-inducing agents ‘t-butylhydroquinone (tBHQ, 100 μM, Sigma) or oligomycin (15 μM, Sigma) for 16 h. The Cells were processed for total RNA extraction or western blotting analysis as outlined below. Both of these compounds were dissolved in ethanol with a final concentration of 0.01%. […] To analyze protein expression and phosphorylation, cells were seeded in 6-well plates and treated as described above. They were washed with ice-cold PBS, scraped into PBS, and centrifuged at 1000 rpm for 5 min. The cell pellet was then subjected to subcellular fractionation. To make the total cell lysate, the cells were lysed with RIPA buffer supplemented with a protease inhibitor mixture and a phosphatase inhibitor mixture. The protein concentration was determined using BCA protein assay reagents (Pierce). Fifty micrograms of total cell lysate (or cytosolic, or nuclear) fractions were resolved on a 10% SDS-polyacrylamide gel, Western blotted, and probed with antibodies specific for Nrf2, Kcap1 or Fyn (all from Santa Cruz) or GSK-3β, GSK-3β-phosho-Ser9 (P-GSK3-β, and phosphor GSK-α/-β (pTyr279/pTyr216) (Cell Signaling). The purity of the subcellular fractions was confirmed using the anti-LDH antibody (Chemieon International) and the anti-PCNA antibody (Santa Cruz) for cytosolic and nuclear fractions, respectively. The levels of protein on a Western blot were assessed using Quantity One Image software (Bio-Rad) and normalized against suitable loading controls, including anti-β-actin antibody for total and cytosolic fractions and anti-PCNA antibody for the nuclear fraction.
# [5] = tested on: diabetic fibroblasts (DFs); assay: Superoxide generation in diabetic fibroblasts (dihydroethidium fluorescence); type: cell-based, rat; settings: superoxide generation over a 30-minute period, FIG. 1A
# Description: Primary rat fibroblasts were derived from dorsal skin biopsies performed on four diabetic Goto Kakizaki rats (DFs) and four age (12-14 months) and sex (female) matched Wistar control rats (CFs). After sterilization in povidine solution, the rat skin was washed in sterile water and rinsed in 70% ethanol in phosphate buffered saline (PBS). The epidermis and dermis were separated following overnight incubation in 0.25% Trypsin/EDTA at 4° C. Samples were washed, diced and digested for thirty min at 37° C. in collagenase type I (250 U/ml) dissolved in Dulbecco's modified Eagle medium (DMEM; Invitrogen) containing penicillin (100 U/ml), streptomycin (100 μg/ml), 2 mM L-glutamine and 26 mM HEPES. After collagenase treatment, the cells were dislodged, centrifuged and resuspended in medium supplemented with 10% fetal bovine serum. […]
# To characterize oxidative conditions of cutaneous tissue, cells in 96-well plates were washed with Krebs Ringer buffer and then incubated at 37° C. in the presence of 10 μM of dihydroethidium (DHE, Molecular Probes). Fluorescence readings were taken at Ex 530 nm and Em=595 nm over a 30 min period. The determination of GSH (reduced glutathione) was achieved using the fluorescence probe monochlorobimane (MCB, Molecular Probes). Cells were incubated with 100 μl of […] MCB for 20 min at 37° C., and the fluorescence intensity was measured at Ex=390 nm and Em=460 nm. […]
# Nrf2 [6] = assay: Nuclear accumulation of Nrf2 in control fibroblasts (subcellular fractionation, Western blot); type: cell-based, rat; settings: CFs, OS-inducing agent, FIG. 3D
# Description: (§2) To quantify responses to oxidative stress activators, fibroblasts of control and of type 2 diabetes were treated with vehicle or the OS-inducing agents ‘t-butylhydroquinone (tBHQ, 100 μM, Sigma) or oligomycin (15 μM, Sigma) for 16 h. The Cells were processed for total RNA extraction or western blotting analysis as outlined below. Both of these compounds were dissolved in ethanol with a final concentration of 0.01%. […] To analyze protein expression and phosphorylation, cells were seeded in 6-well plates and treated as described above. They were washed with ice-cold PBS, scraped into PBS, and centrifuged at 1000 rpm for 5 min. The cell pellet was then subjected to subcellular fractionation. To make the total cell lysate, the cells were lysed with RIPA buffer supplemented with a protease inhibitor mixture and a phosphatase inhibitor mixture. The protein concentration was determined using BCA protein assay reagents (Pierce). […]
# [7] = tested on: control fibroblasts (CFs); assay: mRNA of Nrf2-regulated genes by real-time PCR in control fibroblasts; type: cell-based, rat
# Description: (§3) To quantify responses to oxidative stress activators, fibroblasts of control and of type 2 diabetes were treated with vehicle or the OS-inducing agents ‘t-butylhydroquinone (tBHQ, 100 μM, Sigma) or oligomycin (15 μM, Sigma) for 16 h. The Cells were processed for total RNA extraction or western blotting analysis as outlined below. Both of these compounds were dissolved in ethanol with a final concentration of 0.01%. […] To measure transcription of Nrf2 target genes and NADPH oxidase genes, RNA (1 μg) was isolated from cultured fibroblasts using Trizol reagent (Invitrogen) and reverse transcribed for 1 h at 37° C. using the High Capacity cDNA Reverse Transcription Kit. Real-time quantitative RT-PCR was performed with the TaqMan Gene Expression Assay and was normalized against 18S RNA using an ABI 7900 Real-time PCR System (Applied Biosystems). Primers and probes were designed by and purchased from Applied Biosystems. Primer efficiency and specificity were verified by amplifying standard dilutions of a probe obtained by pooling all the samples and by melting curve analysis, respectively.
# [8] = tested on: diabetic fibroblasts (DFs); assay: mRNA of Nrf2-regulated genes by real-time PCR in diabetic fibroblasts; type: cell-based, rat; settings: tBHQ treatment
# Description: as §3
# Nrf2 [9] = assay: Nrf2 level in total cell lysates (Western blot); type: cell-based, rat; settings: control and diabetic fibroblasts, to about the same extent, FIG. 3A
# Description: as §2
# [10] = CFs / normal fibroblasts, tBHQ treatment
smiles,measurement,setting,value
COC(=O)[C@@H](N)CCCNC(=N)N[N+](=O)[O-] [L-NAME],effect on superoxide production,NADPH oxidase,did not have a significant effect
"OO [HP, hydrogen peroxide]",loss in cell viability,[1]; 37.5 μM,6%
same,loss in cell viability,[1]; 50 μM,22%
same,loss in cell viability,[1]; 75 μM,53%
same,fold increase in caspase-3-like activity,[2]; 50 μM HP,5.4 fold
same,loss in cell viability,[2]; 37.5 μM,17%
same,loss in cell viability,[2]; 50 μM,55%
same,loss in cell viability,[2]; 75 μM,78%
same,fold increase in caspase-3-like activity,"[3]; controls (CFs), 50 μM HP",8.2 fold
same,lipid peroxidation (DPPP fluorescence),CFs and DFs,enhancement in lipid peroxidation
CC(C)(C)OO [t-BHP],lipid peroxidation (DPPP fluorescence),CFs and DFs,enhancement in lipid peroxidation
"Cn1sc(=O)n(Cc2ccccc2)c1=O [TDZD-8, 4-benzyl-2-methyl-1,2,4-thiadiazolidine-3,5-dione]",basal and inducible levels of nuclear Nrf2,"Nrf2 [4]; DFs pretreated 8 h with lithium chloride 50 mM or TDZD-8 50 μM, FIG. 4B only shown for lithium",partially normalized
Oc1ncnc2[nH]ncc12 [allopurinol],effect on superoxide production,NADPH oxidase,did not have a significant effect
c1ccc(Cn2nnc3c(Sc4nc5ccccc5o4)ncnc32)cc1 [VAS2870],reduction of the diabetes-related increase in superoxide,[5],about 31%
same,reduction of NADPH-dependent superoxide production (activity),NADPH oxidase; FIG. 1B,about 87%
CC[C@H]1/C=C/C=C/C[C@@H](C)[C@H](O)[C@@](C)(O)C(=O)[C@@H](C)[C@H](O)[C@@H](C)C(=O)[C@@H](C)[C@H](O)[C@@H](C)/C=C/C(=O)O[C@@H]2[C@H](C)[C@H](CC1)O[C@]1(CC[C@H](C)[C@H](C[C@@H](C)O)O1)[C@H]2C [oligomycin],nuclear accumulation of Nrf2,Nrf2 [4],far smaller increase
same,Nrf2 in the nuclei-enriched fraction,Nrf2 [6],markedly elevated
same,"expression of Mn-SOD, catalase, GSTP1, GCLC and NQO1 mRNA","[7]; CFs, oligomycin treatment, FIG. 3F","increase in the expression of Mn-SOD, catalase, GSTP1 and GCLC but not of NQO1"
same,ability of HP to enhance caspase-3-like activities,[3]; CFs pre-treated with a 2-μg dose of oligomycin,suppresses
"CC(C)(C)c1cc(O)ccc1O [tBHQ, tert-butylhydroquinone]",nuclear accumulation of Nrf2,Nrf2 [4],far smaller increase
same,Nrf2 in the nuclei-enriched fraction,Nrf2 [6],markedly elevated
same,increase of GCLC mRNA expression,[7]; [10],5-7 fold and 5.7 fold
same,increase of GSTP1 mRNA expression,[7]; [10],5-7 fold and 6.3 fold
same,increase of NQO1 mRNA expression,[7]; [10],4-6 fold and 4.8 fold
same,increase of catalase mRNA expression,[7]; [10],7-10 fold and 8.8 fold
same,increase of GR mRNA expression,"[7]; normal fibroblasts, tBHQ treatment",3-4 fold
same,levels of Cu/Zn SOD or Mn-SOD (SOD2) mRNA,"[7]; tBHQ treatment, cell type not given",no observable changes
same,"percent increase of Nrf2-dependent transcripts (catalase, GSTP1, GCLC, NQO1)","[8]; DFs, FIG. 3E",32%-78%
same,upregulation of anti-oxidative enzymes,[8]; cells with overabundant oxidative stress and impaired Nrf2 response,1.5 to 2 fold
same,level of Nrf2 in total cell lysates,Nrf2 [9],elevates
